Data published in patent US9249129B2, “Morpholino substituted urea derivatives as mTOR inhibitors” (CELLZOME LIMITED, priority 2010, dated 2016).
Read-outs that look alike come from different tables or passages of the source.

Experiments:
[1] = tested on: S6RP serine-240/244 phosphorylation in HEK293T/17 cells; test: In vitro phospho-S6 cellular assay (pS6RP S240/244); format: cell-based; conditions: Homo sapiens, Table 6, 2 hours, S6RP Ser240/244, read-out: pS6 (phospho-S6 cell assay data, activity level)
Source text: In Vitro Phospho-S6 and Phospho-Akt Cellular Assay
Activation of mTOR signaling results in phosphorylation of several downstream targets. In cells, mTOR exists in two different protein complexes. The mTOR Complex-1 (mTORC1) phosphorylates and activates S6 Kinase 1 (S6K1) and S6 Kinase 2 (S6K2) (also known as p70S6K) which then phosphorylate S6 Ribosomal Protein (S6RP) (also known as RPS6). S6RP is phosphorylated on serine 235, serine 236, serine 240 and serine 244 by both pS6K1 and pS6K2. The mTOR Complex-2 (mTORC2) phosphorylates AKT on serine 473 which activates the AKT signaling pathway.
The assay measures a test compound's inhibition of S6RP serine-240/244 phosphorylation and inhibition of Akt serine-473 phosphorylation in human embryonic kidney derived HEK293T/17 cells (ATCC CRL-11268).
The HEK293T/17 cell line is maintained in DMEM media (Invitrogen catalogue number 41965-039) supplemented with 10% FCS at 37° C. in a 5% CO2 humidified incubator.
Cells are seeded in 96-well plates at 40,000 cells/well (pS6RP S240/244 assay) or 80,000 cells/well (pAkt 5473 assay) in 90 μl growth media (DMEM, 2% FCS). Plates are incubated for 1 hour in a humidified incubator to allow the cells to adhere. Cells are treated with 8 concentrations of test compounds or DMSO alone for controls (final DMSO concentration 0.1%) and incubated at 37° C. for 2 hours. Then 20 μl of 5× concentrated lysis buffer (750 mM NaCl, 100 mM Tris pH7.4, 5 mM EDTA, 5 mM EGTA, 5% Triton X-100) is added, plates are sealed and incubated for 15 minutes at 4° C. with gentle shaking. After cell lysis, 25 μl cell lysate is transferred to a MesoScale plate coated with an antibody to pS6RP Ser240/244 (MesoScale Discovery K150DGD-3) or an antibody to pAkt Ser 473 (MesoScale Discovery K151DGD-3). Plates have been blocked before by incubation with 150 μl MesoScale Discovery Blocking Solution-A for 1 hour at room temperature followed by washing with 150 μl 1× Tris wash buffer per well. After the transfer of the cell lysate to the MSD plate, the pS6RP (or pAkt) protein is captured on the coated antibody by incubation at room temperature for 1 hour with gentle shaking. After the capture step the plate is washed three times with 150 μl of 1× Tris wash buffer per well. Then 25 μl detection antibody conjugated with a Sulfo-Tag is added and incubated for 1 hour at room temperature with gentle shaking. Subsequently the antibody solution is removed and the plate is washed 3 times with 150 μl 1× Tris wash buffer per well and 150 μl Read buffer is added. The plates are analysed on a MSD 2400 Plate Reader (MesoScale Discovery). Data analysis is performed using nonlinear regression for a sigmoidal dose-response with a variable slope.

PI3K delta (PI3Kd) = molecular target: T1, PI3K delta (PI3Kd) (Homo sapiens, UniProt O00329); test: kinobeads assay, PI3K delta (dot blot detection); format: binding
T1 construct: endogenous in cells; host or cells: Jurkat cells (ATCC TIB-152, clone E6-1), lysate
Method: (§1) The compounds of the present invention as described were tested in the mTOR kinobeads assay as described below. Briefly, test compounds (at various concentrations) and the affinity matrix (1:1 mixture of beads with immobilized phenylthiazole ligand 1 and beads with immobilized phenylmorpholin-chromen ligand; WO 2009/098021) were added to cell lysate aliquots and allowed to bind to the proteins in the lysate sample. After the incubation time the beads with captured proteins were separated from the lysate. Bound proteins were then eluted and the presence of mTOR, PI3K delta (PI3 Kd) and DNA-dependent protein kinase (DNA-PK) was detected and quantified using a specific antibody in a dot blot procedure and the Odyssey infrared detection system. Dose response curves for individual kinases were generated and IC50 values calculated. Kinobeads assays for PI3 kinases (WO-A 2008/015013) and for kinase selectivity profiling (WO 2009/098021) have been previously described.
(§2) The affinity matrix (beads with immobilized phenylmorpholin-chromen ligand) was washed two times with 15 ml of 1×DP buffer containing 0.2% NP40 (IGEPAL® CA-630, Sigma, #13021) and then resupended in 5.5 ml of 1×DP buffer containing 0.2% NP40 (10% beads slurry).
(§3) 5×DP buffer: 250 mM Tris-HCl pH 7.4, 25% Glycerol, 7.5 mM MgCl2, 750 mM NaCl, 5 mM Na3VO4, filter the 5×-lysis buffer through 0.22 μm filter and store in aliquots at −80° C. The 5×DP buffer is diluted to 1×DP buffer containing 1 mM DTT and 25 mM NaF.
(§4) Stock solutions of test compounds were prepared in DMSO. In a 96 well plate 30 μl solution of diluted test compounds at 5 mM in DMSO were prepared. Starting with this solution a 1:3 dilution series (9 steps) was prepared. For control experiments (no test compound) a buffer containing 2% DMSO was used. Compound CZC00018052 served as a positive control (PI-103; Calbiochem catalogue number 528100).
(§5) Jurkat cells (ATCC catalogue number TIB-152 Jurkat, clone E6-1) were grown in 1 litre Spinner flasks (Integra Biosciences, #182101) in suspension in RPMI 1640 medium (Invitrogen, #21875-034) supplemented with 10% Fetal Bovine Serum (Invitrogen) at a density between 0.15×10^6 and 1.2×10^6 cells/ml. Cells were harvested by centrifugation, washed once with 1×PBS buffer (Invitrogen, #14190-094) and cell pellets were frozen in liquid nitrogen and subsequently stored at −80° C.
(§6) Jurkat cells were homogenized in a Potter S homogenizer in lysis buffer: 50 mM Tris-HCl, 0.8% NP40, 5% glycerol, 150 mM NaCl, 1.5 mM MgCl2, 25 mM NaF, 1 mM sodium vanadate, 1 mM DTT, pH 7.5. One complete EDTA-free tablet (protease inhibitor cocktail, Roche Diagnostics, 1873580) per 25 ml buffer was added. The material was dounced 10 times using a mechanized POTTER S, transferred to 50 ml falcon tubes, incubated for 30 minutes on ice and spun down for 10 min at 20,000 g at 4° C. (10,000 rpm in Sorvall SLA600, precooled). The supernatant was transferred to an ultracentrifuge (UZ)-polycarbonate tube (Beckmann, 355654) and spun for 1 hour at 100.000 g at 4° C. (33.500 rpm in Ti50.2, precooled). The supernatant was transferred again to a fresh 50 ml falcon tube, the protein concentration was determined by a Bradford assay (BioRad) and samples containing 50 mg of protein per aliquot were prepared. The samples were immediately used for experiments or frozen in liquid nitrogen and stored frozen at −80° C.
(§7) Jurkat cell lysate (approximately 50 mg protein per plate) was thawed in a water bath at room temperature and then kept on ice. To the thawed cell lysate 1×DP 0.8% NP40 buffer containing protease inhibitors (1 tablet for 25 ml buffer; EDTA-free protease inhibitor cocktail; Roche Diagnostics 1873580) was added in order to reach a final protein concentration of 5 mg/ml total protein. The diluted cell lysate was stored on ice. […]

mTOR = molecular target: T2, mTOR (Homo sapiens, UniProt P42345); test: mTOR kinobeads assay (dot blot detection); format: binding
T2 construct: endogenous in cells; host or cells: Jurkat cells (ATCC TIB-152, clone E6-1), lysate
Method: as §1, §2, §3, §4, §5, §6, §7

PI3Kα = molecular target: T3, PI3Kα (Homo sapiens, UniProt P42336); test: kinobeads assay, PI3K alpha (dot blot detection); format: binding; conditions: Table 4, read-out: Inhibition values (IC50) PI3Ka
T3 construct: endogenous in cells; host or cells: Jurkat cells (ATCC TIB-152) lysate, the only lysate described

PI3Kγ = molecular target: T4, PI3Kγ (Homo sapiens, UniProt P48736); test: kinobeads assay, PI3K gamma (dot blot detection); format: binding; conditions: Table 4, read-out: Inhibition values (IC50) PI3Kg
T4 construct: endogenous in cells; host or cells: Jurkat cells (ATCC TIB-152) lysate, the only lysate described

PI3Kβ = molecular target: T5, PI3Kβ (Homo sapiens, UniProt P42338); test: kinobeads assay, PI3K beta (dot blot detection); format: binding; conditions: Table 4, read-out: Inhibition values (IC50) PI3Kb
T5 construct: endogenous in cells; host or cells: Jurkat cells (ATCC TIB-152) lysate, the only lysate described

[2] = molecular target: T6, DNA-dependent protein kinase (DNA-PK) (Homo sapiens, UniProt P78527); test: kinobeads assay, DNA-PK (dot blot detection); format: binding
T6 construct: endogenous in cells; host or cells: Jurkat cells (ATCC TIB-152, clone E6-1), lysate
Method: as §1, §2, §3, §4, §5, §6, §7

[3] = Table 2, Jurkat cell lysate, read-out: Inhibition values (IC50) PI3Kd
[4] = Table 4, read-out: Inhibition values (IC50) PI3Kd
[5] = Table 2, Jurkat cell lysate, read-out: Inhibition values (IC50) mTor
[6] = Table 4, read-out: Inhibition values (IC50) mTOR
[7] = Table 2, Jurkat cell lysate, read-out: Inhibition values (IC50) DNAPK
[8] = Table 4, read-out: Inhibition values (IC50) DNAPK

T4 sequence (P48736 whole entry): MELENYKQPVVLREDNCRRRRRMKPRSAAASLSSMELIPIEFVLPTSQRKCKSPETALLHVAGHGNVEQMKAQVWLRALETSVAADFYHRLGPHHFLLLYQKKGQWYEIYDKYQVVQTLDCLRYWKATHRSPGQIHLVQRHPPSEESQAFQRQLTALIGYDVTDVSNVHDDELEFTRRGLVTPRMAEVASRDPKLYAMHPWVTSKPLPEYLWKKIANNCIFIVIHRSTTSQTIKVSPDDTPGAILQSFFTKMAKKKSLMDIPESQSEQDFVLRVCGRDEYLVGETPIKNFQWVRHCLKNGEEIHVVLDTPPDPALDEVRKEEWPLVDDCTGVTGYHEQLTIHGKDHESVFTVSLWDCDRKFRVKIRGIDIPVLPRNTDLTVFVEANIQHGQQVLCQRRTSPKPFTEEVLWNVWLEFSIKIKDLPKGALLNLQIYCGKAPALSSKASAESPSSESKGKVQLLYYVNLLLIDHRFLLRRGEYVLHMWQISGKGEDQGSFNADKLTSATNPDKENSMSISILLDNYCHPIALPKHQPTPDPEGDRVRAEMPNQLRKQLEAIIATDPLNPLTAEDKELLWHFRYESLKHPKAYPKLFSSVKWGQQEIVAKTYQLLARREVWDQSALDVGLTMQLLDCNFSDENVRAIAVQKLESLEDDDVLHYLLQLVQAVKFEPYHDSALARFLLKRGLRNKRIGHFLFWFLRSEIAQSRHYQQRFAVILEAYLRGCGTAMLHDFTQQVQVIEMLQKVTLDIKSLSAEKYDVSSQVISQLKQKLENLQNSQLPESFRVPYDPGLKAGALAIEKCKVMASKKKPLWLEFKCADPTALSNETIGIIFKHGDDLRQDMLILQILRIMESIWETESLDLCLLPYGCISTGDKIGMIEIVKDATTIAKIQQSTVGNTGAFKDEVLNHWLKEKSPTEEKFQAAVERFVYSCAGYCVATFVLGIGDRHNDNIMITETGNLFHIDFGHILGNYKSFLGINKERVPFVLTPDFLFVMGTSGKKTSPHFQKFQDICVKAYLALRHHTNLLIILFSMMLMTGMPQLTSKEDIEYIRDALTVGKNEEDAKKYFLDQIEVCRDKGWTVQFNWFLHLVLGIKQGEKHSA
T3 sequence (P42336 whole entry): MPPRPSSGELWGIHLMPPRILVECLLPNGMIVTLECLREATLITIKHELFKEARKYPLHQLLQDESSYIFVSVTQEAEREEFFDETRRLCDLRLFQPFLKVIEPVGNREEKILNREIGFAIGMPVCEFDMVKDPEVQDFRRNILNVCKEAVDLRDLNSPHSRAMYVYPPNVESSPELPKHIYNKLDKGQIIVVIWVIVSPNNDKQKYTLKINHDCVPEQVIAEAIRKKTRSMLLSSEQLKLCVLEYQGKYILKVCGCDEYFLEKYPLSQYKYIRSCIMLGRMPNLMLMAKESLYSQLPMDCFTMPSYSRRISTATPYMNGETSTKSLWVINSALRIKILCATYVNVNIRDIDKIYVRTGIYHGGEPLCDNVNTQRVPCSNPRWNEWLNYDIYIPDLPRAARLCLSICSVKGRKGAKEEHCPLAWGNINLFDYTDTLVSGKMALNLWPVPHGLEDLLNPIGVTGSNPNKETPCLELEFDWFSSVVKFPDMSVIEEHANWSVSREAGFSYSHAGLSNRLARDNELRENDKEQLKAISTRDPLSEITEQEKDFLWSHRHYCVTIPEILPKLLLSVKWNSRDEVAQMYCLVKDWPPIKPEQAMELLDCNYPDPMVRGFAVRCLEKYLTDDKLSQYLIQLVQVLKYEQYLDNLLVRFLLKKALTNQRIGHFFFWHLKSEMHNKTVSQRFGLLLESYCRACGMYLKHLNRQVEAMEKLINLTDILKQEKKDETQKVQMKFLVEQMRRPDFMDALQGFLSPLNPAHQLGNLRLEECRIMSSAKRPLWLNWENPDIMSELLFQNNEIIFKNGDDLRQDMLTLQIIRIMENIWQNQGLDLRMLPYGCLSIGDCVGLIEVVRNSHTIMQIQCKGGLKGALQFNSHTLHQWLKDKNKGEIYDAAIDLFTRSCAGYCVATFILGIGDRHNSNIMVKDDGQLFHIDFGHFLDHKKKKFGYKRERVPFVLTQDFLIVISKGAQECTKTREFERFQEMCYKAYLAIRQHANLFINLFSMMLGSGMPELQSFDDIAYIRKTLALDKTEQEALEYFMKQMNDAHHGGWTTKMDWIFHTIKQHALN
T3 sequence (P27986 whole entry partner): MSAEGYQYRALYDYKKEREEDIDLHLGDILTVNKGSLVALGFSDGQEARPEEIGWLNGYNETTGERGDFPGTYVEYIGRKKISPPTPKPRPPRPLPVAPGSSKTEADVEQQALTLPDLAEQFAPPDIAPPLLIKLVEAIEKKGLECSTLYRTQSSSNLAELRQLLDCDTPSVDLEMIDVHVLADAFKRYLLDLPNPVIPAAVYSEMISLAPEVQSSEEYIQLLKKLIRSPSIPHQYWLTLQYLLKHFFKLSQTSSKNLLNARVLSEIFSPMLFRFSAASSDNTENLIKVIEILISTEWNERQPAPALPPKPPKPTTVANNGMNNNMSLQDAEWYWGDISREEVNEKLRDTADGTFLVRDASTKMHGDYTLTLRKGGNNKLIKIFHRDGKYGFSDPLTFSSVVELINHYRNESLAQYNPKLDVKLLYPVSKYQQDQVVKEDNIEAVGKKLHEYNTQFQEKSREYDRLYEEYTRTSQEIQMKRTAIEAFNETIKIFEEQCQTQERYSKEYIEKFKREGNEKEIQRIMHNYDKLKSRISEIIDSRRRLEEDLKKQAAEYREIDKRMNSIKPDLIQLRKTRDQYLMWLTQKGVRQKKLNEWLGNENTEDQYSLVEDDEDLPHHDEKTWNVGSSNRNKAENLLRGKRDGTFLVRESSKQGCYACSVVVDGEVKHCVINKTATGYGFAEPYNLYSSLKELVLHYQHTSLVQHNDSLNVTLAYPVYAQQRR
T5 sequence (P42338 whole entry): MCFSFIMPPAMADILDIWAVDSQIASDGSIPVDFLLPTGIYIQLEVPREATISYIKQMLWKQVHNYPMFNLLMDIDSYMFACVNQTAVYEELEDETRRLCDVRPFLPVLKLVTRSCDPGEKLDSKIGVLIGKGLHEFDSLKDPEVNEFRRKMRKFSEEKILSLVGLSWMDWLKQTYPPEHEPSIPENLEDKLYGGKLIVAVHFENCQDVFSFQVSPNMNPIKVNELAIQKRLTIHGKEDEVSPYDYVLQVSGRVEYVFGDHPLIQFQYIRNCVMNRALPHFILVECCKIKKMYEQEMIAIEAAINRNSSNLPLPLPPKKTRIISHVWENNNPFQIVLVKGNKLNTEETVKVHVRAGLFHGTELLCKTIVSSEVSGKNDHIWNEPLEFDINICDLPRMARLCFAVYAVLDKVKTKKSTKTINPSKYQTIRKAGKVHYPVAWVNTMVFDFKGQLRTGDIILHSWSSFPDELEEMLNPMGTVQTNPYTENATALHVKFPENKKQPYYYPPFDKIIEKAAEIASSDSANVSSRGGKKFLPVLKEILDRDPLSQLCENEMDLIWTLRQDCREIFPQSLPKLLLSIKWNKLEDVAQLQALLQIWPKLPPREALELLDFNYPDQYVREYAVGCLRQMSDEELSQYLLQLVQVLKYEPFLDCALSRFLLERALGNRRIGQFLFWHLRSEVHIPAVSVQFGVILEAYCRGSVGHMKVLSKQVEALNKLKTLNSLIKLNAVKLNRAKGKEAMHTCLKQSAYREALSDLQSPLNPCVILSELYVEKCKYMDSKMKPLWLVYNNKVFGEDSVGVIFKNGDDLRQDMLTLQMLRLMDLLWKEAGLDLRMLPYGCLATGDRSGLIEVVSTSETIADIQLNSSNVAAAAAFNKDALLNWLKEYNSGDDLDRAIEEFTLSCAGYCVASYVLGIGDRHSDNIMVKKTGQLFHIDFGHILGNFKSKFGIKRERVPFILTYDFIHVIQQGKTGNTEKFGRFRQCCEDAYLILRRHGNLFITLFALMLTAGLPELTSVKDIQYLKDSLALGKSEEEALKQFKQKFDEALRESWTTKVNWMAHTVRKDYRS
T5 sequence (P27986 whole entry partner): as the sequence (P27986 whole entry partner) above
T1 sequence (O00329 whole entry): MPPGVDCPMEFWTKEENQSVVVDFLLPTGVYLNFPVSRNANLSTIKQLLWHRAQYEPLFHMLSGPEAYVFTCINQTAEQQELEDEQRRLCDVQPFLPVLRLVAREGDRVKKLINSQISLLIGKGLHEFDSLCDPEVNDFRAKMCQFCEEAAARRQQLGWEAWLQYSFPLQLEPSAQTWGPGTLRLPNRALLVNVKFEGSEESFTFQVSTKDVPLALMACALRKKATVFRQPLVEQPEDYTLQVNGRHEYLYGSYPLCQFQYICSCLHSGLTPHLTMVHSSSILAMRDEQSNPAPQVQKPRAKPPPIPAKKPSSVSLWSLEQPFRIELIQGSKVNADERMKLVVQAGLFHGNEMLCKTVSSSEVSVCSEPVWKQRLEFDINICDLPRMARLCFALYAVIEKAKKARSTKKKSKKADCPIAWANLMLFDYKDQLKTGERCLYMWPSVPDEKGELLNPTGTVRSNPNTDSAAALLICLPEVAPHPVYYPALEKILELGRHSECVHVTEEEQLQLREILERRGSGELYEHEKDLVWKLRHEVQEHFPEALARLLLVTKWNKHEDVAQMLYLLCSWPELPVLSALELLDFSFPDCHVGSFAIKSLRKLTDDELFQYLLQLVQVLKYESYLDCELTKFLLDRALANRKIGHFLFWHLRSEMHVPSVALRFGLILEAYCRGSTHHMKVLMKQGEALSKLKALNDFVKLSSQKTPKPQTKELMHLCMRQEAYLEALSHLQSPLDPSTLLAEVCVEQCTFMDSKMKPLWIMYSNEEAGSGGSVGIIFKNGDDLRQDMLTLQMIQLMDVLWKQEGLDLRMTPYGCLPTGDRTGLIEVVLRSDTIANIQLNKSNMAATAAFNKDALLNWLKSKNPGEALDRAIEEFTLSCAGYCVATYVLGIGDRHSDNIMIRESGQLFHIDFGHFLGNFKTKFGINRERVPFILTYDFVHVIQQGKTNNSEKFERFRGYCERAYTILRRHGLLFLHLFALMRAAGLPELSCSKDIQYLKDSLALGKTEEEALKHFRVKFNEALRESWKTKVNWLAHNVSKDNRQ
T1 sequence (P27986 whole entry partner): as the sequence (P27986 whole entry partner) above

Structure (SMILES)	IC50 [1] [µM]	IC50 (PI3K delta (PI3Kd); [3]) [µM]	IC50 (PI3K delta (PI3Kd); [4]) [µM]	IC50 (mTOR; [5]) [µM]	IC50 (mTOR; [6]) [µM]	IC50 (PI3Kα) [µM]	IC50 (PI3Kγ) [µM]	IC50 (PI3Kβ) [µM]	IC50 [2, 7] [µM]	IC50 [2, 8] [µM]
C[C@H]1COCCN1c1cc(-c2cccnc2)nc(-c2ccc(NC(=O)NC3CC3)cc2)n1 [Example 3, (S)-1-cyclopropyl-3-(4-(4-(3-methylmorpholino)-6-(pyridin-3-yl)pyrimidin-2-yl)phenyl)urea]	< 0.1	≥ 10	≥ 10	0.1 to 1	0.1 to 1	≥ 10	≥ 10	≥ 10	≥ 10	≥ 10
C[C@H]1COCCN1c1nc(-c2ccc(NC(=O)NC3CC3)cc2)cc(-c2cccnc2)n1 [Example 7, (S)-1-cyclopropyl-3-(4-(2-(3-methylmorpholino)-6-(pyridin-3-yl)pyrimidin-4-yl)phenyl)]	0.1 to 1	≥ 10	≥ 10	1 to 10	1 to 10	≥ 10	≥ 10	≥ 10	≥ 10	≥ 10
CCNC(=O)Nc1ccc(-c2cc(-c3ccccc3S(=O)(=O)N(C)C)nc(N3CCOC[C@@H]3C)n2)cc1 [Example 14, (S)-2-(6-(4-(3-ethylureido)phenyl)-2-(3-methylmorpholino)pyrimidin-4-yl)-N,N-dimethylbenzenesulfonamide]	0.1 to 1	≥ 10	≥ 10	0.1 to 1	0.1 to 1	≥ 10	≥ 10	≥ 10	≥ 10	≥ 10
CCNC(=O)Nc1ccc(-c2cc(-c3cncc(S(C)(=O)=O)c3)nc(N3CCOC[C@@H]3C)n2)cc1 [Example 15, (S)-1-ethyl-3-(4-(2-(3-methylmorpholino)-6-(5-(methylsulfonyl)pyridin-3-yl)pyrimidin-4-yl)phenyl)urea]	0.1 to 1	≥ 10	≥ 10	1 to 10	1 to 10	≥ 10	≥ 10	≥ 10	≥ 10	≥ 10
C[C@H]1COCCN1c1cc(-c2cncc(S(C)(=O)=O)c2)nc(-c2ccc(NC(=O)NC3CC3)cc2)n1 [Example 22, (S)-1-cyclopropyl-3-(4-(4-(3-methylmorpholino)-6-(5-(methylsulfonyl)pyridin-3-yl)pyrimidin-2-yl)phenyl)urea]	0.1 to 1	≥ 10	≥ 10	1 to 10	1 to 10				≥ 10	≥ 10
C[C@H]1COCCN1c1cc(-c2ccncc2F)nc(-c2ccc(NC(=O)NC3CC3)cc2)n1 [Example 24, (S)-1-cyclopropyl-3-(4-(4-(3-fluoropyridin-4-yl)-6-(3-methylmorpholino)pyrimidin-2-yl)phenyl)urea]	0.1 to 1	≥ 10	≥ 10	0.1 to 1	0.1 to 1	≥ 10	≥ 10	≥ 10	≥ 10	≥ 10
C[C@H]1COCCN1c1cc(-c2ccncc2)nc(-c2ccc(NC(=O)NC3CC3)cc2)n1 [Example 25, (S)-1-cyclopropyl-3-(4-(4-(3-methylmorpholino)-6-(pyridin-4-yl)pyrimidin-2-yl)phenyl)urea]	0.1 to 1	≥ 10	≥ 10	0.1 to 1	0.1 to 1	≥ 10	≥ 10	≥ 10	≥ 10	≥ 10
CNC(=O)Nc1ccc(-c2nccc(N3CCOC[C@@H]3C)n2)cc1 [Example 34, (S)-1-methyl-3-(4-(4-(3-methylmorpholino)pyrimidin-2-yl)phenyl)urea]	0.1 to 1	≥ 10	≥ 10	1 to 10	1 to 10				≥ 10	≥ 10
CC(=O)NCCNC(=O)Nc1ccc(-c2cc(-c3cc(F)ccc3S(C)(=O)=O)nc(N3CCOC[C@@H]3C)n2)cc1 [Example 85, (S)—N-(2-(3-(4-(6-(5-fluoro-2-(methylsulfonyl)phenyl)-2-(3-methylmorpholino)pyrimidin-4-yl)phenyl)ureido)ethyl)acetamide]			≥ 10		1 to 10	≥ 10	≥ 10	≥ 10		≥ 10
